Experimental data published in article PMC3399945 (Journal of the American Chemical Society, 2012).
Square brackets hold non-standard residues; d marks the D form. Peptide text beside a SMILES is read from it. * marks the point of attachment. X1 = NC(=O)CC[C@@H]1NC(=O)CC/C=C/CN(CCC(=O)*)C(=O)[C@H](CCC(=O)O)NC1=O; β3hL = CC(C)C[C@H](N)CC(=O)O

Tests used:
[1] = Thermal denaturation monitored by CD / Zimm–Bragg model; format: physicochemical; conditions: from broad thermal transition, CD in 10% TFE/PBS, Zimm–Bragg simulation
[2] = Amide hydrogen-deuterium exchange; format: physicochemical; conditions: for H/D rate constant: D2O/TFE-d3 80/20, 20 °C, NMR, in duplicate; for Stabilization, −ΔG (free energy of protection): from H/D exchange, 20 °C
[3] = target: N-terminal His6-tagged MDM2 (25–117) (Homo sapiens, UniProt Q00987); assay: Fluorescence polarization-based competition binding assay with Flu-p53; conditions: comparison with previously reported affinity of 1 (ref 38)
[4] = format: physicochemical; conditions: 10% TFE in PBS, 25 °C, 100 μM peptide, pH 7.4

| Molecule | nucleation constant σ [1] | H/D rate constant ([2]; residue 4 (F^4)) [h⁻¹] | H/D rate constant ([2]; residue 5 (S^5)) [h⁻¹] | H/D rate constant ([2]; residue 8 (W^8)) [h⁻¹] | H/D rate constant ([2]; residue 9 (K^9)) [h⁻¹] | H/D rate constant ([2]; residue 12 (S^12)) [h⁻¹] | affinity for MDM2 compared with HBS α-helix 1 (in words) [3] | Stabilization, −ΔG (free energy of protection) ([2]; residue 6 (D^6 in 1 and 2, Dβ^6 in 3)) [kcal/mol] | Stabilization, −ΔG (free energy of protection) ([2]; residue 7 (L^7 in 1 and 3, Lβ^7 in 2)) [kcal/mol] | Stabilization, −ΔG (free energy of protection) ([2]; residue 8 (W^8)) [kcal/mol] | Stabilization, −ΔG (free energy of protection) ([2]; residue 9 (K^9)) [kcal/mol] | Stabilization, −ΔG (free energy of protection) ([2]; residue 10 (L^10 in 1 and 2, Lβ^10 in 3)) [kcal/mol] | Stabilization, −ΔG (free energy of protection) ([2]; residue 11 (L^11 in 1 and 3, Lβ^11 in 2)) [kcal/mol] | Stabilization, −ΔG (free energy of protection) ([2]; residue 12 (S^12)) [kcal/mol] | CD signature (in words) [4] |
| --- | --- | --- | --- | --- | --- | --- | --- | --- | --- | --- | --- | --- | --- | --- | --- |
| CC(C)C[C@@H](CC(=O)N[C@@H](Cc1c[nH]c2ccccc12)C(=O)N[C@@H](CCCCN)C(=O)N[C@@H](CC(C)C)C(=O)N[C@H](CC(=O)N[C@@H](CO)C(N)=O)CC(C)C)NC(=O)[C@H](CC(=O)O)NC(=O)[C@H](CO)NC(=O)[C@H](Cc1ccccc1)NC(=O)CCN1C/C=C/CCC(=O)N[C@@H](CCC(N)=O)C(=O)N[C@@H](CCC(=O)O)C1=O [Peptide 2] (X1-FSD[β3hL]WKL[β3hL]S-NH2) | ≥ 1 | 0.0003809 | 0.0003809 | 6.9e-06 | 2.8e-06 | 5.85e-05 |  |  |  |  |  |  |  |  |  |
| CC(C)C[C@@H](CC(=O)N[C@@H](CC(C)C)C(=O)N[C@@H](CO)C(N)=O)NC(=O)[C@H](CCCCN)NC(=O)[C@H](Cc1c[nH]c2ccccc12)NC(=O)[C@H](CC(C)C)NC(=O)C[C@H](CC(=O)O)NC(=O)[C@H](CO)NC(=O)[C@H](Cc1ccccc1)NC(=O)CN1C/C=C/CCC(=O)N[C@@H](CCC(N)=O)C(=O)N[C@@H](CCC(=O)O)CC1=O [Peptide 3] | ≥ 1 | 1.33e-05 | 1.07e-05 | 1.4e-06 | 8e-07 | 2.6e-06 | comparable to that previously reported for the optimized HBS p53 α-helix analog 1 |  |  |  |  |  |  |  |  |
| XQEG*FSDLWKLLS-NH2 (sidechain bridge or staple) [Peptide 1] |  | 0.0003808 | 0.0003808 | 1.8e-06 | 5.1e-06 | 7.8e-06 |  | -0.58 | 0.52 | 1.22 | 1.23 | 1.40 | 1.04 | 1.42 | CD signature typical of a canonical α-helix, with double minima near 206 and 222 nm and a maximum at 190 nm |
